This is an account of results in paper PMC6257821, “Selective agonist of TRPML2 reveals direct role in chemokine release from innate immune cells” (eLife, 2018).

What all share (format): cell-based
Assay [1] concerns the target T1, hTRPML2 (Homo sapiens, UniProt Q8IZK6).
T1 construct: gene MCOLN2; hTRPML2-YFP
T1 sequence (Q8IZK6 1-566): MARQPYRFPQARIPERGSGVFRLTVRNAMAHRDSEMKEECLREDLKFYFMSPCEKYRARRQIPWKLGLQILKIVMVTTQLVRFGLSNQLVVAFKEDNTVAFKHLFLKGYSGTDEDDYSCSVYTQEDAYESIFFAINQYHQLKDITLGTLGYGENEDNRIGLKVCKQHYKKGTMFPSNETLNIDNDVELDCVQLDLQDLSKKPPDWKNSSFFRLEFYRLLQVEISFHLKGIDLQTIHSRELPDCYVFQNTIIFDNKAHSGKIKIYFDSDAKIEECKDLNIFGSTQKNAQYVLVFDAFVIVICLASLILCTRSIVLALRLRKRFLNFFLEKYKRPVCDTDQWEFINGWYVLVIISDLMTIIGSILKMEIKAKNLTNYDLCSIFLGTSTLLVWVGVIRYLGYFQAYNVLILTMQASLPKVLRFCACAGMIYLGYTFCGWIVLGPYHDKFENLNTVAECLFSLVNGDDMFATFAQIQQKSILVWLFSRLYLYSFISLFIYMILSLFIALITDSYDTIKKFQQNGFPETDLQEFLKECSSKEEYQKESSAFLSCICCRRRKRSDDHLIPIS
Put plainly: fura-2 calcium imaging dose-response and endolysosomal patch-clamp in HEK293 cells; G425A mutation abrogates effect.

The target in assay [2] is T2, mTRPML2 (Mus musculus, UniProt Q8K595).
T2 construct: gene Mcoln2
T2 sequence (Q8K595 1-566): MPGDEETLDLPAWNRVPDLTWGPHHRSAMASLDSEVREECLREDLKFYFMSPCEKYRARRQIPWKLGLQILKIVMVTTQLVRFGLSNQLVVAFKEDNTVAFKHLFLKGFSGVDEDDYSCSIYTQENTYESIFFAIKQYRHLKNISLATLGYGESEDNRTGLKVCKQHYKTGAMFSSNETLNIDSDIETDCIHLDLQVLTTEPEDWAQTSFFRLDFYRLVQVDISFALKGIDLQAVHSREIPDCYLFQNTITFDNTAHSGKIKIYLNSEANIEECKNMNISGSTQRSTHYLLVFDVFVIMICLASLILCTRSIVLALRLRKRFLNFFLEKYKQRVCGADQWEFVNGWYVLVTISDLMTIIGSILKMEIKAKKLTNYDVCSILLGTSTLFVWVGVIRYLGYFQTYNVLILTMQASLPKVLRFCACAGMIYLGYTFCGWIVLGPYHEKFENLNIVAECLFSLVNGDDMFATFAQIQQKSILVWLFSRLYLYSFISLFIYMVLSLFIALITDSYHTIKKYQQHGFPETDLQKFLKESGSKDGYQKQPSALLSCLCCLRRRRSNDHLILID
Put plainly: fura-2 calcium imaging dose-response in HEK293 cells; endolysosomal patch-clamp in LPS-stimulated mouse macrophages.

The target of assay [3] is T3, hTRPML1 (Homo sapiens, UniProt Q9GZU1).
T3 construct: gene MCOLN1
The assay is described as follows: endolysosomal patch-clamp (LE/LY, HEK293), […], positive control.

Assay [4] deals with T4, hTRPML3 (Homo sapiens, UniProt Q8TDD5).
T4 sequence (Q8TDD5 1-553): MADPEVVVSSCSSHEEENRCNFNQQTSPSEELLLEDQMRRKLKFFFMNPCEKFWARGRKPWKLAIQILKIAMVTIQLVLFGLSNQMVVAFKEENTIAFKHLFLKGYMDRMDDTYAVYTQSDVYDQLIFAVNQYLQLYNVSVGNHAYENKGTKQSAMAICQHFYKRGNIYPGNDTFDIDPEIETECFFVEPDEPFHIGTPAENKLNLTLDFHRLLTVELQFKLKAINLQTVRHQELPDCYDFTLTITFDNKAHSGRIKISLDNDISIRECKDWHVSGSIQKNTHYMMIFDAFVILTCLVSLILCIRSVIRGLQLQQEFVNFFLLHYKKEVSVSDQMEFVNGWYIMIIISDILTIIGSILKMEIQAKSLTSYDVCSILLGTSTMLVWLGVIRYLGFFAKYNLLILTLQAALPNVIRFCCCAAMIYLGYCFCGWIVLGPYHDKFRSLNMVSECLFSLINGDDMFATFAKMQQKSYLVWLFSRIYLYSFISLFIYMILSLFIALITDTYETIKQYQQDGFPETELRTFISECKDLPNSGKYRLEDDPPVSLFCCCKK
Described as above. Also on record: gene MCOLN3.

T3 sequence (Q9GZU1 whole entry): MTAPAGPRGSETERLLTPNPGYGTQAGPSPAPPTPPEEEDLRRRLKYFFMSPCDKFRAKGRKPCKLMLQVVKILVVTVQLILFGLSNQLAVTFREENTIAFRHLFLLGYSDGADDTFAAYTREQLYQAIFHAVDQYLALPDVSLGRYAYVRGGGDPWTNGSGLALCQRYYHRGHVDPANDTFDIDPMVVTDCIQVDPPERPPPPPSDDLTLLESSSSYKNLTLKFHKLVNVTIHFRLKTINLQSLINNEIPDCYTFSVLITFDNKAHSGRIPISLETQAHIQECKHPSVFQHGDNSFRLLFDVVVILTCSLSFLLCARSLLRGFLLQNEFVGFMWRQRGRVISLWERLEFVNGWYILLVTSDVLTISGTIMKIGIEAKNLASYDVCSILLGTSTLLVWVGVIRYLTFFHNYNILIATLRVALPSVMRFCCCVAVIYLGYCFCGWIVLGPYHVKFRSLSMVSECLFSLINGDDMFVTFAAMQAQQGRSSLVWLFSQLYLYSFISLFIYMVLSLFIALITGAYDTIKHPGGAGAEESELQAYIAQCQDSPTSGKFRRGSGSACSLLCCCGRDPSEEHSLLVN

On to `Clc1cccc(Cl)c1C1=NOC2C3CCC(C3)C12` (stereo not shown) [EVP-22, ML2-SA1], for which the EC50 in assay [1] came to 1240 ± 120 nM; in assay [2], 2380 ± 10 nM.
`CC1CC(C)(C)N(C(=O)CN2C(=O)c3ccccc3C2=O)c2ccccc21` (stereo not shown) [ML-SA1]: the “endolysosomal patch-clamp (LE/LY, HEK293), 10 μM, positive control” value in assay [3] and in assay [4] was “the latter ones were robustly activated by ML-SA1 as a positive control” each time.
